Measurements: patent publication US8715749B2, “Products containing polyphenol(s) and L-arginine” (priority 1998, dated 2014)
“Also recorded” adds a separate entry of the source.

Key:
[1] = test system: Human umbilical vein endothelial cells (HUVEC); assay: Nitric oxide production by HUVEC (nitrite in culture medium, Griess reaction); assay type: cell-based; conditions: for production of nitric oxide by HUVEC (in words): 48 hour incubation
Protocol: The culture medium used was Medium 200 (Cascade Biologics Inc.) supplemented with Low Serum Growth Supplement (Cascade Biologics Inc.) and 20% fetal calf serum (DAP).
The cocoa procyanidins evaluated were the epicatechin monomer, the dimer, the trimer, the tetramer, the pentamer, and the heptamer. The nitrite content of cocoa procyanidins were evaluated. At the maximal concentration used (100 ? g/ml), no nitrite was detected.
Human umbilical vein endothelial cells (HUVEC) were purchased at primary culture stage from Cascade Biologics Inc. (Portland). Cells were cultured in Medium supplemented with Low Serum Growth Supplement (LSGS) and 20% Fetal Calf Serum (FCS) in 75 cm^2 flasks. The cells were seeded for a week following treatment with trypsin-EDTA (2 ml/flask) at 37° C. under 5% CO2 atmosphere. Trypsin was neutralized upon addition of 3 ml. FCS.
The cell suspension was centrifuged for 10 min. at 1200 rpm and the cell pellet was resuspended in the culture medium described above.
Nitric oxide synthase activity was assessed by measuring the nitrite concentration in the culture medium. HUVEC were used between passage 2 to 13. Cells were cultured in 24-well culture plates at the concentration of 5×10^5 cells ml in Medium 200 containing LSGS (300 μl per well), and 20% CS. After a 24 hour to 48 hour incubation period at 37° C. under a 5% CO2 atmosphere, the cells were used confluent (2.5×10^6 cells). Medium was removed and fresh was added.
Cocoa procyanidin monomer and oligomers were added to the culture medium at 100 μg/ml, 10 μg/ml or 1 μg/ml (final concentration). Controls consisted of cells cultured without the procyanidins. Reference compounds included acetylcholine, ionomycin (NO synthase stimulator via calcium entry), lipopolysaccharide (NO synthase inductor), and N-methyl L-arginine acetate (inhibitor of NO synthase). The reference compounds were used in order to evidence nitrite production from endothelial NO synthesis.
NO production was estimated by measurement of nitrite (NO2) concentration in culture supernatants according to the Griess reaction. Briefly, 50 μl of conditional medium were incubated with 150 μl of Griess reagent (1% sulfanilamide in 30% acetic acid/0.1% N-(1-naphtyl)-ethylenediamine dihydrochloride in 60% acetic acid) at room temperature for 2 min. The absorbance at 540 nm was determined in a Labsystems MCC/340 multiskan. Nitrite concentration was determined by using sodium nitrite as standard and analyzed using ΔSOFT 2.12 software. The cell-free medium and 100 μg/ml of procyanidins contained no detectable nitrite concentrations.
Raw Data^1: Showing the Effect of Cocoa Procyanidins On Nitric Oxide Production by HUVEC ^1Results are expressed as μmol nitrite/10^6 cells/48 h

[2] = test system: Aortic rings from New Zealand white rabbits; assay: Endothelium dependent relaxation of pre-contracted rabbit aortic rings in organ baths
Protocol: Aortic rings from New Zealand white rabbits were set up in 20 ml organ baths. […] The cocoa procyanidins tested were the monomer, dimer, trimer, tetramer, pentamer, hexamer.
Rings were incubated for 30′ with these cocoa procyanidins (10^−5M) and re-tested with Ach and cocoa procyanidins (10^−7 to 10^−4). Incubation of the tissue with these cocoa procyanadin(s) attenuated EDR evoked by both the cocoa procyanidins and Ach acutely. The maximum relaxation to Ach pre-incubation, 49±5%; post pentamer incubation, 2±1.4%; post combo 2 incubation, 0.8±0.8%: to pentamer pre-incubation, 46.5±4.5%; post incubation, 6.8±3.2%: to combo 2 pre-incubation, 54.3±7%; post incubation, 1.7±1.1%, n=5).

[3] = test system: arterial blood pressure of anesthetized guinea-pigs; assay: Arterial blood pressure of anesthetized guinea-pigs after intravenous injection; assay type: in vivo; conditions: for Hypertension (%)* Exp 1 / Hypertension (%)* Exp 2 / Hypertension (%)* Exp 3 / Hypertension (%)* Exp 4 / Hypertension (%)* Exp 5 / Hypertension (%)* Exp 6: % of control mean arterial blood pressure
Protocol: Guinea-pigs (around 400 g body weight, male and female) were anesthetized upon injection of 40 mg/kg sodium pentobarbital. The carotid artery was canulated for monitoring of the arterial blood pressure through a Gould pressure transducer (Model P500). Each of the six cocoa procyanidins, at concentrations of 1, 3, 10, and 25 mg/kg, was injected intravenously through the jugular vein. Alterations in blood pressure were recorded on a polygraph.
No marked effect of the vehicle containing DMSO was noted when the dose of 25 mg/kg of the cocoa procyanidin was used (15±5%).
The effects of administering of 1, 3, 10, or 25 mg/kg cocoa procyanidins on arterial blood pressure of anesthetized guinea-pigs was investigated. Upon intravenous injection, the procyanidins monomer and dimer evoked a decrease in blood pressure of about 20%, i.e., not markedly different from injection of solvent alone (15±5%, n=5). […] The rank of potency of the various cocoa procyanidins, considering the highest dose used, was as follows: hexamer=tetramer>pentamer>trimer.

[4] = preliminary experiments, single dose 10^−5 M, rings pre-contracted with norepinephine 10^−5 M

CC(=O)OCC[N+](C)(C)C [Acetylcholine, acetylcholine]
Nitric Oxide Production by HUVEC, Exp. 1 ([1]; Acetylcholine 10^−5 M): 2.5 μmol nitrite/10^6 cells/48 h
Nitric Oxide Production by HUVEC, Exp. 2 ([1]; Acetylcholine 10^−5 M): 2.6 μmol nitrite/10^6 cells/48 h
Nitric Oxide Production by HUVEC, Exp. 3 ([1]; Acetylcholine 10^−5 M): 2.8 μmol nitrite/10^6 cells/48 h
Nitric Oxide Production by HUVEC, Mean ([1]; Acetylcholine 10^−5 M): 2.6 μmol nitrite/10^6 cells/48 h
% Relaxation ([2]; acute exposure, dose 10^−5 M): 49 ± 5.1%
% Relaxation ([2]; acute exposure, dose 10^−6 M): 42.2 ± 4.2%
% Relaxation ([2]; acute exposure, dose 10^−7 M): 15.2 ± 2.6%
maximum relaxation to Ach ([2]; pre-incubation, n=5): 49±5%
% Relaxation [2, 4]: 68%

Oc1cc(O)c2c(c1)O[C@H](c1ccc(O)c(O)c1)[C@H](O)C2 [Monomer, epicatechin]
production of NO from HUVEC, dose dependence (in words) ([1]; 1, 10, 100 μg/ml): marked production but only at 100 μg/ml concentration
Nitric Oxide Production by HUVEC, Exp. 1 ([1]; cocoa procyanidin 1 μg/ml): 2.3 μmol nitrite/10^6 cells/48 h
Nitric Oxide Production by HUVEC, Exp. 2 ([1]; cocoa procyanidin 1 μg/ml): 2.5 μmol nitrite/10^6 cells/48 h
Nitric Oxide Production by HUVEC, Exp. 3 ([1]; cocoa procyanidin 1 μg/ml): 2.6 μmol nitrite/10^6 cells/48 h
Nitric Oxide Production by HUVEC, Mean ([1]; cocoa procyanidin 1 μg/ml): 2.5 μmol nitrite/10^6 cells/48 h
Nitric Oxide Production by HUVEC, Exp. 1 ([1]; cocoa procyanidin 10 μg/ml): 2.7 μmol nitrite/10^6 cells/48 h
Nitric Oxide Production by HUVEC, Exp. 2 ([1]; cocoa procyanidin 10 μg/ml): 2.8 μmol nitrite/10^6 cells/48 h
Nitric Oxide Production by HUVEC, Exp. 3 ([1]; cocoa procyanidin 10 μg/ml): 2.6 μmol nitrite/10^6 cells/48 h
Nitric Oxide Production by HUVEC, Mean ([1]; cocoa procyanidin 10 μg/ml): 2.7 μmol nitrite/10^6 cells/48 h
Nitric Oxide Production by HUVEC, Exp. 1 ([1]; cocoa procyanidin 100 μg/ml): 5.4 μmol nitrite/10^6 cells/48 h
Nitric Oxide Production by HUVEC, Exp. 2 ([1]; cocoa procyanidin 100 μg/ml): 5.9 μmol nitrite/10^6 cells/48 h
Nitric Oxide Production by HUVEC, Exp. 3 ([1]; cocoa procyanidin 100 μg/ml): 5.7 μmol nitrite/10^6 cells/48 h
Nitric Oxide Production by HUVEC, Mean ([1]; cocoa procyanidin 100 μg/ml): 5.7 μmol nitrite/10^6 cells/48 h
potency of the various procyanidins, NO production (rank) ([1]; highest dose used, 100 μg/ml): dimer>trimer>heptamer=pentmer=tetramer>monomer; also recorded: dimer>trimer>hexamer=pentamer=tetramer>monomer
Hypertension (%)* Exp 1 ([3]; 1 mg/kg intravenously): 55.32%
Hypertension (%)* Exp 2 ([3]; 1 mg/kg intravenously): 70.31%
Hypertension (%)* Exp 3 ([3]; 1 mg/kg intravenously): 70.27%
Hypertension (%)* Exp 4 ([3]; 1 mg/kg intravenously): 75.99%
Hypertension (%)* Exp 5 ([3]; 1 mg/kg intravenously): 71.92%
Hypertension (%)* Exp 6 ([3]; 1 mg/kg intravenously): 77.97%
Hypertension (%)* Exp 1 ([3]; 3 mg/kg intravenously): 62.99%
Hypertension (%)* Exp 2 ([3]; 3 mg/kg intravenously): 72.62%
Hypertension (%)* Exp 3 ([3]; 3 mg/kg intravenously): 74.59%
Hypertension (%)* Exp 4 ([3]; 3 mg/kg intravenously): 73.33%
Hypertension (%)* Exp 5 ([3]; 3 mg/kg intravenously): 76.04%
Hypertension (%)* Exp 6 ([3]; 3 mg/kg intravenously): 70.44%
Hypertension (%)* Exp 1 ([3]; 10 mg/kg intravenously): 58.95%
Hypertension (%)* Exp 2 ([3]; 10 mg/kg intravenously): 66.53%
Hypertension (%)* Exp 3 ([3]; 10 mg/kg intravenously): 70.06%
Hypertension (%)* Exp 4 ([3]; 10 mg/kg intravenously): 65.79%
Hypertension (%)* Exp 5 ([3]; 10 mg/kg intravenously): 70.69%
Hypertension (%)* Exp 6 ([3]; 10 mg/kg intravenously): 66.21%
Hypertension (%)* Exp 1 ([3]; 25 mg/kg intravenously): 46.93%
Hypertension (%)* Exp 2 ([3]; 25 mg/kg intravenously): 55.14%
Hypertension (%)* Exp 3 ([3]; 25 mg/kg intravenously): 63.08%
Hypertension (%)* Exp 4 ([3]; 25 mg/kg intravenously): 53.95%
Hypertension (%)* Exp 5 ([3]; 25 mg/kg intravenously): 65.91%
Hypertension (%)* Exp 6 ([3]; 25 mg/kg intravenously): 58.66%
rank of potency of the various cocoa procyanidins, hypotension ([3]; considering the highest dose used): hexamer=tetramer>pentamer>trimer>dimer=monomer
decrease in blood pressure ([3]; intravenous injection, solvent alone 15±5%): about 20%
% Relaxation [2, 4]: 0%

C[C@H](CCC(=O)O)C[C@H](C)C[C@H](C)C(=O)/C=C(\O)[C@H](C)C[C@H](C)C/C=C/[C@@H](C)[C@@H](O)[C@@H](C)[C@@H](O)C[C@@H]1CC[C@@](C)([C@H]2CC[C@@](C)([C@@H](C)O)O2)O1 [Ionomycin, ionomycin, reference compound]
production of nitric oxide by HUVEC (in words) ([1]; 1 μM): marked production of nitric oxide
Nitric Oxide Production by HUVEC, Exp. 1 ([1]; Ionomycin 1 μM): 7.8 μmol nitrite/10^6 cells/48 h
Nitric Oxide Production by HUVEC, Exp. 2 ([1]; Ionomycin 1 μM): 6.3 μmol nitrite/10^6 cells/48 h
Nitric Oxide Production by HUVEC, Exp. 3 ([1]; Ionomycin 1 μM): 5.4 μmol nitrite/10^6 cells/48 h
Nitric Oxide Production by HUVEC, Mean ([1]; Ionomycin 1 μM): 6.5 μmol nitrite/10^6 cells/48 h

lipopolysaccharide [LPS, reference compound]
production of nitric oxide by HUVEC (in words) ([1]; 100 ng/ml): marked production of nitric oxide
Nitric Oxide Production by HUVEC, Mean ([1]; LPS 100 mg/ml): 14.4 μmol nitrite/10^6 cells/48 h
Nitric Oxide Production by HUVEC, Exp. 1 ([1]; LPS 100): 15.6 μmol nitrite/10^6 cells/48 h
Nitric Oxide Production by HUVEC, Exp. 2 ([1]; LPS 100): 14.3 μmol nitrite/10^6 cells/48 h
Nitric Oxide Production by HUVEC, Exp. 3 ([1]; LPS 100): 13.2 μmol nitrite/10^6 cells/48 h

CC(=O)O.CN[C@@H](CCCNC(=N)N)C(=O)O [LNMA, N-methyl L-arginine acetate, reference compound]
production of nitric oxide by HUVEC evoked by ionomycin and lipolysaccharide (in words) ([1]; N-methyl L-arginine added to the incubation medium): blocked
